From US20230126893A1, “[(1,4,5-TRISUBSTITUTED-1H-PYRAZOL-3-YL)SULFANYL]ACETIC ACID DERIVATIVES, SALTS THEREOF, AND USE THEREOF AS ACTIVE HERBICIDAL INGREDIENTS” (BAYER AKTIENGESELLSCHAFT, priority 2020, published 2023)

What was measured:
Type in all cases: in vivo
[1] = tested on: Abutylon threophrasti; assay: Post-emergence herbicidal effect against ABUTH; settings: 1280 g/ha, visual assessment about 3 weeks after treatment, 100% = plants have died, 0% = like control plants
Description: (§1) [table] 2. Post-emergence herbicidal effect and crop plant compatibility Seeds of monocotyledonous and dicotyledonous weed and crop plants are laid out in sandy loam soil in wood-fibre pots, covered with soil and cultivated in a greenhouse under good growth conditions. 2 to 3 weeks after sowing, the test plants are treated at the one-leaf stage. The compounds of the invention, formulated in the form of wettable powders (WP) or as emulsion concentrates (EC), are then sprayed onto the green parts of the plants as aqueous suspension or emulsion at a water application rate equating to 600 to 800 l/ha with addition of 0.2% wetting agent. After the test plants have been left to stand in the greenhouse under optimal growth conditions for about 3 weeks, the action of the preparations is assessed visually in comparison to untreated controls (herbicidal action in percent (%): 100% activity=the plants have died, 0% activity=like control plants).

[2] = tested on: Digitaria sanguinalis; assay: Pre-emergence herbicidal effect against DIGSA; settings: 1280 g/ha, visual score after 3 weeks, 100% = plants have died, 0% = like control plants
Excerpt: (§2) 1. Pre-emergence herbicidal effect and crop plant compatibility Seeds of monocotyledonous and dicotyledonous weed plants and crop plants are laid out in sandy loam soil in wood-fibre pots and covered with soil. The compounds of the invention, formulated in the form of wettable powders (WP) or as emulsion concentrates (EC), are then applied to the surface of the covering soil as aqueous suspension or emulsion at a water application rate equating to 600 to 800 L/ha with addition of 0.2% wetting agent. After the treatment, the pots are placed in a greenhouse and kept under good growth conditions for the trial plants. The damage to the test plants is scored visually after a test period of 3 weeks by comparison with untreated controls (herbicidal activity in percent (%): 100% activity=the plants have died, 0% activity=like control plants). [table]

[3] = tested on: Veronica persica; assay: Post-emergence herbicidal effect against VERPE; settings: 1280 g/ha, visual assessment about 3 weeks after treatment, 100% = plants have died, 0% = like control plants
Description: as §1

[4] = tested on: Tripleurospermum inodorum; assay: Post-emergence herbicidal effect against MATIN; settings: 1280 g/ha, visual assessment about 3 weeks after treatment, 100% = plants have died, 0% = like control plants
Description: as §1

[5] = tested on: Poa annua; assay: Pre-emergence herbicidal effect against POAAN; settings: 1280 g/ha, visual score after 3 weeks, 100% = plants have died, 0% = like control plants
Excerpt: as §2

[6] = tested on: Alopecurus myosuroides; assay: Pre-emergence herbicidal effect against ALOMY; settings: 1280 g/ha, visual score after 3 weeks, 100% = plants have died, 0% = like control plants
Excerpt: as §2

[7] = tested on: Lolium rigidum; assay: Pre-emergence herbicidal effect against LOLRI; settings: 1280 g/ha, visual score after 3 weeks, 100% = plants have died, 0% = like control plants
Excerpt: as §2

[8] = tested on: Poa annua; assay: Post-emergence herbicidal effect against POAAN; settings: 1280 g/ha, visual assessment about 3 weeks after treatment, 100% = plants have died, 0% = like control plants
Description: as §1

[9] = tested on: Echinochloa crus-galli; assay: Pre-emergence herbicidal effect against ECHCG; settings: 1280 g/ha, visual score after 3 weeks, 100% = plants have died, 0% = like control plants
Excerpt: as §2

[10] = tested on: Veronica persica; assay: Pre-emergence herbicidal effect against VERPE; settings: 1280 g/ha, visual score after 3 weeks, 100% = plants have died, 0% = like control plants
Excerpt: as §2

[11] = tested on: Tripleurospermum inodorum; assay: Pre-emergence herbicidal effect against MATIN; settings: 1280 g/ha, visual score after 3 weeks, 100% = plants have died, 0% = like control plants
Excerpt: as §2

[12] = tested on: Setaria viridis; assay: Post-emergence herbicidal effect against SETVI; settings: 1280 g/ha, visual assessment about 3 weeks after treatment, 100% = plants have died, 0% = like control plants
Description: as §1

[13] = tested on: Setaria viridis; assay: Pre-emergence herbicidal effect against SETVI; settings: 1280 g/ha, visual score after 3 weeks, 100% = plants have died, 0% = like control plants
Excerpt: as §2

[14] = tested on: Echinochloa crus-galli; assay: Post-emergence herbicidal effect against ECHCG; settings: 1280 g/ha, visual score after about 3 weeks, 100% = plants have died, 0% = like control plants
Description: as §1

[15] = tested on: Stellaria media; assay: Pre-emergence herbicidal effect against STEME; settings: 1280 g/ha, visual score after 3 weeks, 100% = plants have died, 0% = like control plants
Excerpt: as §2

[16] = tested on: Digitaria sanguinalis; assay: Post-emergence herbicidal effect against DIGSA; settings: 1280 g/ha, visual score after about 3 weeks, 100% = plants have died, 0% = like control plants
Description: as §1

[17] = tested on: Alopecurus myosuroides; assay: Post-emergence herbicidal effect against ALOMY; settings: 1280 g/ha, visual score after about 3 weeks, 100% = plants have died, 0% = like control plants
Description: as §1

[18] = tested on: Bassia scoparia; assay: Post-emergence herbicidal effect against KCHSC; settings: 1280 g/ha, visual assessment about 3 weeks after treatment, 100% = plants have died, 0% = like control plants
Description: as §1

[19] = tested on: Stellaria media; assay: Post-emergence herbicidal effect against STEME; settings: 1280 g/ha, visual assessment about 3 weeks after treatment, 100% = plants have died, 0% = like control plants
Description: as §1

[20] = tested on: Amaranthus retroflexus; assay: Pre-emergence herbicidal effect against AMARE; settings: 1280 g/ha, visual score after 3 weeks, 100% = plants have died, 0% = like control plants
Excerpt: as §2

Compound	Post-emergence action against ABUTH [1] [%]	Pre-emergence action against DIGSA [2] [%]	Post-emergence action against VERPE [3] [%]	Post-emergence action against MATIN [4] [%]	Pre-emergence action against POAAN [5] [%]	Pre-emergence action against ALOMY [6] [%]	Pre-emergence action against LOLRI [7] [%]	Post-emergence action against POAAN [8] [%]	Pre-emergence action against ECHCG [9] [%]	Pre-emergence action against VERPE [10] [%]	Pre-emergence action against MATIN [11] [%]	Post-emergence action against SETVI [12] [%]	Pre-emergence action against SETVI [13] [%]	Post-emergence action against ECHCG [14] [%]	Pre-emergence action against STEME [15] [%]	Post-emergence action against DIGSA [16] [%]	Post-emergence action against ALOMY [17] [%]	Post-emergence action against KCHSC [18] [%]	Post-emergence action against STEME [19] [%]	Pre-emergence action against AMARE [20] [%]
CCOC(=O)CSc1nn(-c2ccccc2F)c(-c2ccc(F)c(F)c2)c1C(F)(F)F [Example I-018]	90	100	100	90	100	90	100	100	100	100	100	100	100	90	100	90	–	–	–	–
CCOC(=O)CSc1nn(-c2cc(F)ccc2F)c(-c2ccc(F)cc2)c1Br [Example I-020]	–	100	90	90	100	90	100	90	–	100	100	90	100	90	100	90	100	90	90	–
O=C(O)CSc1nn(-c2ccccc2F)c(-c2ccc(F)c(F)c2)c1[N+](=O)[O-] [Example I-024]	90	100	100	100	100	90	100	100	90	100	100	100	100	90	100	100	100	90	–	–
CCOC(=O)CSc1nn(-c2ccc(F)cc2F)c(-c2ccc(F)c(F)c2)c1Br [Example I-027]	–	100	100	–	100	–	90	90	–	90	100	–	100	–	100	100	100	90	90	–
Cc1cnsc1-c1c(Br)c(SCC(=O)O)nn1-c1ccccc1F [Example V-002]	–	–	–	–	100	–	–	–	–	–	100	–	100	–	–	–	–	–	–	100
O=C(O)CSc1nn(-c2ccccc2F)c(-c2ccc(Cl)nc2)c1Br [II-016]	–	100	100	100	100	90	100	100	100	90	100	–	100	100	100	100	100	–	100	–
O=C(O)CSc1nn(-c2ccccc2)c(-c2cncnc2)c1Br [III-002]	–	100	100	90	100	–	–	100	100	100	100	–	100	–	100	–	–	–	90	100
COC(=O)CNC(=O)CSc1nn(-c2ccccc2F)c(-c2ccc(F)c(F)c2)c1Cl [VII-001]	90	100	90	90	100	90	100	100	–	100	100	90	100	100	100	100	100	90	90	–
